Measurements: patent US20180369186A1, “METHOD FOR MODULATING AUTOPHAGY AND APPLICATIONS THEREOF” (JAWAHARLAL NEHRU CENTRE FOR ADVANCED SCIENTIFIC RESEARCH, priority 2015, published 2018)

What was measured:
α-synuclein toxicity = experiment: S. cerevisiae α-synuclein toxicity model, growth assay; assay type: cell-based; details: 50 μM
Protocol: To screen small molecule library LOPAC1280 in S. cerevisiae SNCA toxicity model, working plates containing 50 μM drugs in 1.5% DMSO (190 compounds/plate) are prepared in a 384 well format. WT SNCA-GFP with or without small molecules and untreated WT GFP are grown under optimized conditions (80 μl, 30° C. and 420 rpm) for 36 h in a plate reader (Varioskan Flash, Thermo Scientific) in duplicates with automatic absorbance (A600) recording every 20 min. Growth curves of untreated WT GFP and WT SNCA-GFP strains are plotted and mid to late exponential phase time point of untreated WT GFP strain is chosen as reference for data analysis. Its corresponding time point of untreated and drug treated WT SNCA-GFP strains are plotted separately in a box plot. Small molecules that rescued the growth lag by ≥3 SD units of untreated WT SNCA-GFP strain are considered as ‘Hits’.
Growth assays: In a 384 well plate, appropriate yeast strains are seeded (A600˜0.07) with and without drugs and incubated (80 μl, 30° C. and 420 rpm) in a multiplate reader (Varioskan Flash, Thermo Scientific) for 48 h with automatic absorbance (A600) recording every 20 min. Growth curves are plotted and analyzed using GraphPad Prism.
Induction of α-synuclein-EGFP aggregates: To induce α-synuclein-EGFP aggregates, the corresponding strains are inoculated in SD-Ura medium, Secondary culture is inoculated from primary inoculum and incubated till A600 reaches 0.8/ml. Cells are washed twice with sterile water and aggregates are induced by adding SG-Ura for 12-16 h.
To screen small molecule library LOPAC^1280 in S. cerevisiae α-synuclein toxicity model, working plates containing 50 μM drugs (small molecule) in 1.5% DMSO (190 compounds/plate) are prepared in a 384 well format. WT α-synuclein-EGFP with and without small molecules and untreated WT EGFP are grown under optimized conditions (80 μl, 30° C. and 420 rpm) for 36 h in a plate reader (Varioskan Flash, Thermo Scientific) in duplicates with automatic absorbance (A600) recording every 20 min.
Growth curves of untreated WT EGFP and WI α-synuclein-EGFP strains are plotted and mid to late exponential phase time point of untreated WT EGFP strain is chosen as reference for data analysis. Its corresponding time point of untreated and drug treated WT α-synuclein-EGFP strains are plotted separately in a box plot.
Appropriate yeast strains are seeded (A600 ˜0.07) with or without drugs in a 384-well plate and incubated (420 rpm, 30° C. and 80 μl) in a multiplate reader (Varioskan Flash, Thermo Scientific) for 48 h that records absorbance (A600) automatically for every 20 min. Growth curves are plotted using GraphPad Prism.

GFP-Atg8 = GFP-Atg8 processing assay (general autophagy); assay type: cell-based, Saccharomyces cerevisiae
Protocol: Saccharomyces cerevisiae strain containing the GFP-Atg8 (pRS 316 vector backbone) plasmid is grown in synthetic complete medium lacking uracil (SC-URA) under appropriate conditions (30° C. 250 rpm). From this, a secondary culture is inoculated at A600 nm=0.2 and grown as above until A600 nm reached ˜0.65. The cultures are transferred to SD-N (nitrogen starvation) medium at A600 nm=3, separately with and without the compounds, and samples are collected at different time intervals. Sample preparation is done by the TCA precipitation method and immunoblotting is performed using standard methods.
Yeast strains (A600=3) are resuspended in trichloroacetic acid (12.5%) and stored at −80° C. for at least half an hour. Samples are thawed on ice, centrifuged (16000×g, 10 min) and pellet is washed twice with ice-cold acetone (80%). Pellets are air dried, resuspended in lysis (1% SDS and 0.1 N NaOH) solution and Laemmii buffer and boiled for 10 min.

DAergic neurons in SNpc = experiment: MPTP mouse model: LC3 and A11 puncta in DAergic neurons of SNpc; assay type: in vivo
Protocol: The sequential immunolabeling procedure is used to co-label the TH and LC3 and/or A11. First, the midbrain sections are equilibrated with 0.1 M PBS (pH 7.4) for 10 min and then incubated with buffered bovine serum albumin (3%) for 4 h to block non-specific epitopes. Then, the sections are incubated in rabbit anti-LC3 antibody (1:1000) and/or anti-oligomer antibody (A11, 1:1000) for 72 h at 4° C. After subsequent washes, the sections are incubated in corresponding fluorescent secondary antibody (1:200) at 4° C., overnight.
Co-labeling with TH is performed on the same sections using rabbit anti-TH antibody (1:500), followed by secondary labeling. PBST (0.01 M, pH 7.4) is used as both working and washing buffer. Sections are then mounted using Vectashield hardset mounting medium.

[1] = starvation, 4 h and 6 h, 50 μM, versus untreated
[2] = 5 mg/kg, co-administered with MPTP

| SMILES | rescue of growth lag due to α-synuclein toxicity (α-synuclein toxicity; WT α-synuclein-EGFP strain) | rescue of growth lag in autophagy mutants expressing α-synuclein (α-synuclein toxicity; atg1Δ, atg5Δ, atg8Δ, atg11Δ and atg15Δ) | autophagy induction / flux, growth condition (GFP-Atg8; growth condition, 6 h, 50 μM) | increase in autophagic flux, growth condition (GFP-Atg8; growth condition, 50 μM, versus untreated) | increase in autophagic flux, starvation condition (GFP-Atg8; [1]) | increase in autophagy induction, starvation condition (GFP-Atg8; [1]) | LC3B puncta per neuron, MPTP vs MPTP+Co (DAergic neurons in SNpc; 5 mg/kg, co administered with MPTP) | reduction in A11 positive toxic aggregates, MPTP vs MPTP+Co (DAergic neurons in SNpc; [2]) | p-GSK3B signals in DAergic neurons (DAergic neurons in SNpc; 6-Bio only and MPTP+Co cohorts) | GFP-Atg8 labelled autophagosomes, fluorescence microscopy (GFP-Atg8; starvation) | release of GFP from GFP-Atg8 (general autophagy) (GFP-Atg8; starvation) | rescue of growth lag, treated vs untreated (α-synuclein toxicity; WT α-syn cells) | LC3 puncta per neuron, compound only vs placebo/vehicle (DAergic neurons in SNpc; 5 mg/kg of body weight, compound only cohort) | aggregates in compound only cohort vs vehicle (DAergic neurons in SNpc; 5 mg/kg, XCT 790 only) | LC3 puncta per cell, vehicle vs MPTP+Co (DAergic neurons in SNpc; [2]) |
| --- | --- | --- | --- | --- | --- | --- | --- | --- | --- | --- | --- | --- | --- | --- | --- |
| O=C1Nc2cc(Br)ccc2/C1=C1/Nc2ccccc2/C1=N\O [6-Bio, (2′Z,3′E)-6-Bromoindirubin-3′-oxime] | rescues the growth lag | fails to rescue growth lag | dramatically induces autophagy | approximately 3 fold | 2 fold | 2 fold | ~2,5 fold | ~7 fold | Reduced p-GSK3B signals | – | – | – | – | – | – |
| Cc1ccc(S(=O)(=O)/C=C/C#N)cc1 [Bay11, 3-[(4-methylphenyl)sulfonyl]-(2E)-propenenitrile] | – | – | – | – | – | – | – | – | – | accumulation of punctate structures outside the vacuole | slower release of GFP | – | – | – | – |
| COc1cc(C=C(C#N)C(=O)Nc2nnc(C(F)(F)F)s2)ccc1OCc1ccc(C(F)(F)F)cc1C(F)(F)F [XCT 790, 3-[4-(2,4-Bis-trifluoromethylbenzyloxy)-3-methoxyphenyl]-2-cyano-N-(5-trifluoromethyl-1,3,4-thiadiazol-2-yl)acrylamide] | – | – | – | – | – | – | – | ~6 fold | – | – | – | ~3.2 fold | ~3 fold | comparable to that of vehicle cohort | ~3 fold |
